In the Kinase Knowledgebase extract (Sharma et al. 2016) one finds IC50 data, which are given here for 15 compounds.

The experiment concerns the target CDK2 (human) (UniProt P24941). The experiment in a line: Cell-Based Assay.

A word on the IC50: it is the concentration that gives 50% inhibition. A high value points to weaker potency. In the case of `Cc1[nH]c(CN(C)C)c(C)c1-c1ccnc(Nc2ccc(F)cc2)n1`, the IC50 runs as follows: (a549) 2.76 µM; (ht-29) 3.2 µM; (saos-2) 0.7 µM.
The corresponding values for `Cc1c[nH]c(C)c1-c1ccnc(Nc2ccc(C(F)(F)F)cc2)n1` are 15 µM, 3.1 µM and 17 µM.
On to `Cc1[nH]c(C#N)c(C)c1-c1ccnc(Nc2cccc(O)c2)n1`, for which the IC50 (saos-2) is 0.9 µM.
`Cc1[nH]c(C#N)c(C)c1-c1ccnc(Nc2ccc(C(F)(F)F)cc2)n1` had an IC50 (a549) of 3.64 µM, an IC50 (ht-29) of 0.95 µM and an IC50 (saos-2) of 3.4 µM.
As to `Cc1cc(Nc2nccc(-c3c(C)[nH]c(C#N)c3C)n2)ccc1Cl`, the IC50 by setting is: (a549) 4.37 µM; (ht-29) 3.27 µM; (saos-2) 5.88 µM.
Taken in the same sequence, the figures for `CCN(CC)Cc1[nH]c(C)c(-c2ccnc(Nc3ccc(F)cc3)n2)c1C` were 0.97 µM, 1.31 µM and 1.61 µM.
Taken in the same sequence, the figures for `Cc1[nH]c(CN2CCN(C)CC2)c(C)c1-c1ccnc(Nc2ccc(F)cc2)n1` were 13.8 µM, 5.09 µM and 14.2 µM.
Consider `Cc1[nH]c(C#N)c(C)c1-c1ccnc(Nc2ccc(I)cc2)n1`, for which the IC50 turned out to be 0.51 µM (a549); 0.09 µM (hela); 35.1 µM (hs-27); 0.11 µM (ht-29); 37.3 µM (imr90); 0.45 µM (mcf-7). Besides, the IC50 reads like this: (saos-2) 0.75 µM; (w138) 21.3 µM.
In the case of `Cc1ccc(Nc2nccc(-c3c(C)[nH]c(C#N)c3C)n2)cc1I`, the IC50 by setting is: (a549) 3.6 µM; (ht-29) 0.72 µM; (saos-2) 3.12 µM.
Under “a549”, `Cc1c[nH]c(C)c1-c1ccnc(Nc2ccc(I)c(Cl)c2)n1` returned an IC50 of 4.39 µM.
For `Cc1[nH]c(C#N)c(C)c1-c1ccnc(Nc2ccc(F)cc2)n1`, the IC50 came out at 15.1 µM (hs-27), 20.8 µM (imr90) and 9.6 µM (w138).
For the compound `Cc1[nH]c([N+](=O)[O-])c(C)c1-c1ccnc(Nc2ccc(N(C)C)cc2)n1`, the IC50 (a549) was determined as 3.05 µM, the IC50 (ht-29) turned out to be 0.61 µM and the IC50 (saos-2) came out at 2.65 µM.
As for `Cc1[nH]c(Br)c(C)c1-c1ccnc(Nc2cccc([N+](=O)[O-])c2)n1`, the IC50 by setting is: (a549) 7.56 µM; (ht-29) 2.92 µM; (saos-2) 12.4 µM.
As for `Cc1[nH]c(C#N)c(C)c1-c1ccnc(Nc2ccc(N(C)C)cc2)n1`, the IC50 is, setting by setting: (a549) 1.41 µM; (ht-29) 0.17 µM; (saos-2) 1.5 µM.
The compound `Cc1ccc(Nc2nccc(-c3c(C)[nH]c(C#N)c3C)n2)cc1F` came in with an IC50 (a549) of 1.49 µM, an IC50 (ht-29) of 0.28 µM and an IC50 (saos-2) of 2.23 µM.
